# Measurements taken from patent publication US20100081679A1, “DIAMINOPYRIMIDINES AS FUNGICIDES” (Bayer CropScience AG, priority 2007, published 2010).
# Marks after values point to notes of the source that are not given here.
# Experiment: logP determination via retention times, calibrated with unbranched alkan-2-ones
# Format: physicochemical
# Details: HPLC on reversed-phase C 18, EEC Directive 79/831 Annex V.A8; method *: 40° C., 0.1% aqueous formic acid and acetonitrile, linear gradient 10% to 95% acetonitrile
row,logP,Compound
1,1.56*,COC(=O)Nc1ccc(Nc2ncc(Cl)c(NC3CC3)n2)c(F)c1 [compound 530]
2,1.81*,CC(C)(C)NC(=O)Cc1cccc(Nc2ncc(Cl)c(NC3CC3)n2)c1 [compound 562]
3,1.59*,CC(=O)N1CCc2cc(Nc3ncc(Cl)c(NCC4CC4)n3)ccc21 [compound 518]
4,2.70*,COc1cc(Nc2ncc(Br)c(NC3CC3)n2)ccc1Cl [compound 532]
5,2.15*,COc1cc(Nc2ncc(Br)c(NC3CC3)n2)cc(OC)c1 [compound 563]
6,1.53*,O=C1CCCN1c1cc(Nc2ncc(Cl)c(NC3CC3)n2)ccc1F [compound 536]
7,3.1*,FC(F)C(F)(F)Oc1cccc(Nc2ncc(Br)c(NCC3CC3)n2)c1 [compound 493]
8,2.18*,CC(C)(C)OC(=O)Nc1ccc(Nc2ncc(Cl)c(NCC3CC3)n2)cc1 [compound 522]
9,1.31*,O=C1Cc2cc(Nc3ncc(Cl)c(NCC4CC4)n3)ccc2N1 [compound 516]
10,1.29*,O=C1COCCN1c1ccc(Nc2ncc(Br)c(NC3CC3)n2)cc1 [compound 500]
11,2.74*,O=C(N(c1ccc(Nc2ncc(Br)c(NCC3CC3)n2)cc1)C1CC1)C(F)(F)F [compound 465]
12,2.21*,CCC(=O)c1cc(Nc2ncc(Br)c(NCC3CC3)n2)ccc1O [compound 488]
13,2.36*,Cc1cc(C)cc(Nc2ncc(Br)c(NCC3CC3)n2)c1 [compound 471]

# Same assay, conditions: HPLC on reversed-phase C 18, method **: 43° C.; 0.1% aqueous phosphoric acid and acetonitrile; linear gradient 10% to 95% acetonitrile
row,logP,Compound
1,2.72**,CN(CC1CC1)c1nc(Nc2ccccc2)ncc1Cl [compound 963]
2,2.09**,CN(CC1CC1)c1nc(Nc2ccc(N3CCCC3=O)cc2)ncc1Cl [compound 966]
3,1.61**,O=C1CCCN1c1cc(Nc2ncc(Br)c(NC3CC3)n2)ccc1F [compound 771]

# Same assay, conditions: HPLC on reversed-phase C18, method **: 43° C.; mobile phase 0.1% aqueous phosphoric acid and acetonitrile; linear gradient 10% to 95% acetonitrile
row,logP,Compound
1,2.12**,O=C1CCCN1c1ccc(Nc2ncc(C(F)(F)F)c(NC3CC3)n2)cc1 [compound 342]

# Same assay, conditions: HPLC on reversed-phase C18, method *: 40° C., 0.1% aqueous formic acid and acetonitrile, linear gradient 10% to 95% acetonitrile
row,logP,Compound
1,2.07*,Cc1cccc(Nc2ncc(Br)c(NC3CC3)n2)c1 [compound 730]
2,4.43*,Clc1cc(Cl)cc(Nc2ncc(Br)c(NC3CC3)n2)c1 [compound 749]
3,0.88*,Clc1cnc(Nc2cccc(C3CCNCC3)c2)nc1NC1CC1 [compound 727]
4,1.44*,CCNC(=O)c1cccc(Nc2ncc(Br)c(NC3CC3)n2)c1 [compound 702]
5,3.03*,Fc1cc(Cl)ccc1Nc1ncc(Cl)c(NC2CC2)n1 [compound 947]
6,3.04*,O=C(c1ccc(Nc2ncc(C(F)(F)F)c(NCC3CC3)n2)cc1)N1CCCCC1 [compound 704]
7,3.03*,CSc1ccc(Nc2ncc(Br)c(NC3CC3)n2)cc1Cl [compound 746]
8,1.62*,O=C(Nc1cccc(Nc2ncc(Cl)c(NC3CC3)n2)c1)c1ccco1 [Example 99]
9,2.53*,Fc1cccc(Nc2ncc(Cl)c(NC3CC3)n2)c1F [compound 946]
10,2.54*,Clc1cnc(Nc2cccc(-c3ccco3)c2)nc1NC1CC1 [compound 714]
11,2.39*,CC(C)(C)C(=O)Cc1ccc(Nc2ncc(Cl)c(NCC3CC3)n2)cc1 [compound 676]
12,3.46*,Clc1ccc(Nc2ncc(Cl)c(NC3CC3)n2)cc1Cl [compound 941]
13,3.68*,Fc1cc(C(F)(F)F)ccc1Nc1ncc(Cl)c(NC2CC2)n1 [compound 934]

# Same assay, conditions: HPLC on reversed-phase C18, method *: 40° C.; mobile phase 0.1% aqueous formic acid and acetonitrile; linear gradient 10% to 95% acetonitrile
row,logP,Compound
1,2.13*,N#Cc1cccc(Nc2ncc(Cl)c(NC3CC3)n2)c1 [compound 278]
2,2.54*,Clc1ccc(Nc2ncc(Cl)c(NC3CC3)n2)cc1 [compound 285]
3,2.82*,COC(c1cccc(Nc2ncc(Br)c(NC3CC3)n2)c1)C(F)(F)F (centres unmarked) [compound 333]
4,2.18*,CC(C)(C)NC(=O)c1ccc(Nc2ncc(Br)c(NC3CC3)n2)cc1 [compound 352]
5,1.59*,Clc1cnc(Nc2ccc3c(c2)OCO3)nc1NC1CC1 [compound 295]
6,2.27*,CC(C)(C)OC(=O)Nc1cccc(Nc2ncc(Cl)c(NC3CC3)n2)c1 [compound 330]
7,2.06*,CCN(C(=O)OC)c1ccc(Nc2ncc(Br)c(NC3CC3)n2)cc1 [compound 303]
8,2.18*,CSc1ccc(Nc2ncc(Br)c(NC3CC3)n2)cc1 [compound 353]
9,1.63*,COc1ccc(Nc2ncc(Br)c(NC3CC3)n2)cc1 [compound 344]

# Same assay, conditions: HPLC on reversed-phase C18 column (EEC Directive 79/831 Annex V.A8); method *: 40° C.; 0.1% aqueous formic acid and acetonitrile; linear gradient 10% to 95% acetonitrile
row,logP,Compound
1,2.13*,CC(=O)N(C)c1ccc(Nc2ncc(C(F)(F)F)c(NCC3CC3)n2)cc1 [compound 202]
2,1.76*,CCOc1ccc(Nc2ncc(Cl)c(NC3CC3)n2)cc1 [compound 183]
3,2.57*,COc1cc(Nc2ncc(C(F)(F)F)c(NCC3CC3)n2)cc(OC)c1OC [compound 217]
4,2.84*,O=C(Nc1ccc(Nc2ncc(C(F)(F)F)c(NCC3CC3)n2)cc1)C(F)(F)F [compound 203]
5,1.73*,COCC(C)Oc1ccc(Nc2ncc(Cl)c(NC3CC3)n2)cc1 (centres unmarked) [compound 188]
6,2.6*,CC(C)(C)C(=O)Nc1ccc(Nc2ncc(C(F)(F)F)c(NCC3CC3)n2)cc1 [compound 201]
7,2.63*,CS(=O)(=O)c1ccc(Nc2ncc(C(F)(F)F)c(NCC3CC3)n2)cc1 [compound 200]

# Same assay, conditions: HPLC reversed-phase C 18, EEC Directive 79/831 Annex V.A8; method *: 40° C., 0.1% aqueous formic acid and acetonitrile, linear gradient 10% to 95% acetonitrile
row,logP,Compound
1,2.46*,Clc1cnc(Nc2ccccc2)nc1NCC1CC1(Cl)Cl (centres unmarked) [compound 800]
2,1.49*,CC(O)C(=O)Nc1cccc(Nc2ncc(Cl)c(NC3CC3)n2)c1 (centres unmarked) [compound 856]
3,2.6*,ClC1(Cl)CC1CNc1nc(Nc2ccccc2)ncc1Br (centres unmarked) [compound 808]
4,2.25*,CCCS(=O)(=O)c1cccc(Nc2ncc(Cl)c(NC3CC3)n2)c1 [compound 852]
5,1.72*,CC(=O)CCc1cccc(Nc2ncc(Cl)c(NC3CC3)n2)c1 [compound 841]
6,1.63*,O=C1OCCN1c1cccc(Nc2ncc(Cl)c(NCC3CC3)n2)c1 [compound 861]
7,1.18*,CC1COC(=O)N1c1cccc(Nc2ncc(F)c(NC3CC3)n2)c1 (centres unmarked) [compound 802]

# Same assay, conditions: method **: HPLC reversed-phase C 18, 43° C., 0.1% aqueous phosphoric acid and acetonitrile, linear gradient 10% to 95% acetonitrile
row,logP,Compound
1,2.23**,CCOC1(Nc2nc(Nc3ccccc3)ncc2Cl)CC1.Cl [compound 38]

# Same assay, conditions: method **: HPLC reversed-phase C 18, temperature 43° C.; mobile phase 0.1% aqueous phosphoric acid and acetonitrile; linear gradient 10% to 95% acetonitrile
row,logP,Compound
1,3.35**,CSc1ccc(Nc2ncc(C(F)(F)F)c(NC3CC3)n2)cc1 [compound 653]

# Same assay, conditions: method **: HPLC, reversed-phase C 18, 43° C., mobile phase 0.1% aqueous phosphoric acid and acetonitrile, linear gradient from 10% to 95% acetonitrile
row,logP,Compound
1,1.54**,CC(=O)NS(=O)(=O)c1ccc(Nc2ncc(Cl)c(NC3CC3)n2)cc1 [compound 1021]
2,3.07**,CSc1cccc(Nc2ncc(Cl)c(NC3CC3(C)C)n2)c1 (centres unmarked) [compound 1029]

# Same assay, conditions: method *: HPLC reversed-phase C18, 40° C., 0.1% aqueous formic acid and acetonitrile, linear gradient 10% to 95% acetonitrile
row,logP,Compound
1,2.06*,CC(C)(C)C(=O)Nc1cccc(Nc2ncc(Br)c(NCC3CC3)n2)c1 [compound 451]
2,2.2*,O=C(NCc1ccc(Nc2ncc(Cl)c(NC3CC3)n2)cc1)OCc1ccccc1 [Example 95]
3,1.82*,Ic1cnc(Nc2ccccc2)nc1NC1CC1 [compound 364]
4,1.53*,Oc1ccc(Nc2ncc(Br)c(NCC3CC3)n2)cc1F [compound 464]
5,2.84*,CSc1ccc(Nc2ncc(Cl)c(NC3CC3)n2)cc1Cl [compound 377]
6,1.68*,COc1ccc(Nc2ncc(Br)c(NCC3CC3)n2)cc1OC [compound 409]

# Same assay, conditions: method *: HPLC reversed-phase C 18, temperature 40° C.; mobile phase 0.1% aqueous formic acid and acetonitrile; linear gradient 10% to 95% acetonitrile
row,logP,Compound
1,3.1*;,CSc1ccc(Nc2ncc(C(F)(F)F)c(NC3CC3)n2)cc1 [compound 653]
2,3.74*,COC(c1cccc(Nc2ncc(C(F)(F)F)c(NC3CC3)n2)c1)C(F)(F)F (centres unmarked) [compound 624]
3,2.95*,N#Cc1cccc(Nc2ncc(C(F)(F)F)c(NC3CC3)n2)c1 [compound 638]
4,3.33*,CC(C)(C)C(=O)Cc1ccc(Nc2ncc(C(F)(F)F)c(NC3CC3)n2)cc1 [compound 655]
5,1.15*,CC(=O)Nc1cc(Nc2ncc(F)c(NC3CC3)n2)ccc1C [compound 601]

# Second part, the compound before the results:
row,Compound,logP
1,CN(C)S(=O)(=O)c1ccc(Nc2ncc(F)c(NC3CC3)n2)cc1 [compound 578],1.68*
2,O=S(=O)(c1cccc(Nc2ncc(F)c(NC3CC3)n2)c1)N1CCCCC1 [compound 588],1.61*
3,O=C1CCCN1c1cccc(Nc2ncc(F)c(NC3CC3)n2)c1 [compound 599],1.37*
4,CNC(=O)c1cccc(Nc2ncc(F)c(NC3CC3)n2)c1 [compound 585],1.05*
5,O=C1CCCCN1c1ccc(Nc2ncc(Cl)c(NC3CC3)n2)cc1 [compound 569],1.47*
6,CC(C)(CF)C(=O)Nc1cccc(Nc2ncc(F)c(NC3CC3)n2)c1 [compound 600],1.55*
7,CC(=O)c1ccc(Nc2ncc(F)c(NC3CC3)n2)cc1 [compound 590],1.53*

# Same assay, conditions: method *: HPLC, reversed-phase C 18, 40° C., mobile phase 0.1% aqueous formic acid and acetonitrile, linear gradient from 10% to 95% acetonitrile
row,logP,Compound
1,3.69*,Clc1cnc(Nc2ccc(Sc3ccccc3)cc2)nc1NC1CC1 [compound 1013]
2,2.55*,CCSCc1cccc(Nc2ncc(Cl)c(NC3CC3)n2)c1 [compound 986]
3,3.07*;,CSc1cccc(Nc2ncc(Cl)c(NC3CC3(C)C)n2)c1 (centres unmarked) [compound 1029]
4,1.84*,CCN(CC)C(=O)c1ccc(Nc2ncc(Cl)c(NC3CC3)n2)cc1 [compound 984]

# Same assay, conditions: pH 2.3; read-out: logP (pH2.3)
row,chromatographic logP,Compound
1,2.39,FC(F)(F)c1cnc(Cl)nc1NC1CC1 [2-chloro-N-cyclopropyl-5-trifluoromethylpyrimidine-4-amine]
